Publication PMC3928078, “Ponatinib efficiently kills imatinib-resistant chronic eosinophilic leukemia cells harboring gatekeeper mutant T674I FIP1L1-PDGFRα: roles of Mcl-1 and β-catenin” (Molecular Cancer, 2014)

Target: T1, FIP1L1-PDGFRα (Homo sapiens, UniProt P16234, T674I, form not given)
T1 construct: gene PDGFRA; with Pre-mRNA 3'-end-processing factor FIP1
Format: cell-based
Details: 24 h, 1000 nM, positive control; gatekeeper mutant; stated gain (imatinib resistance)

T1 sequence (P16234 550-1089 T674I limits assumed, form open): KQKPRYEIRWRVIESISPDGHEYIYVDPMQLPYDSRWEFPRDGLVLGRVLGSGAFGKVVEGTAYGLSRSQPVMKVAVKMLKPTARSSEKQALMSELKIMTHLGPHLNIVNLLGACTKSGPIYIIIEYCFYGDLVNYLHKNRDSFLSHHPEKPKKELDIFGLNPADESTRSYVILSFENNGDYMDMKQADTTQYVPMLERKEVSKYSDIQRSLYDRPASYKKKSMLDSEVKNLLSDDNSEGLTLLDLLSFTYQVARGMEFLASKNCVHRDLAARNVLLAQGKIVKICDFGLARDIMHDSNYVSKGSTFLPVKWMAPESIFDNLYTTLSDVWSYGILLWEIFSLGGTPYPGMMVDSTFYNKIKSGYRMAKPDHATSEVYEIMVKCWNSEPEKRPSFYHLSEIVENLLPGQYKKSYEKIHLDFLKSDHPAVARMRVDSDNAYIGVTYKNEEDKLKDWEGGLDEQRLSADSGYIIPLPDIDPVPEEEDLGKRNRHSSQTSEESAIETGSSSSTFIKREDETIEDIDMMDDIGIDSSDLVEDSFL
T1 sequence (Q6UN15 whole entry partner, form open): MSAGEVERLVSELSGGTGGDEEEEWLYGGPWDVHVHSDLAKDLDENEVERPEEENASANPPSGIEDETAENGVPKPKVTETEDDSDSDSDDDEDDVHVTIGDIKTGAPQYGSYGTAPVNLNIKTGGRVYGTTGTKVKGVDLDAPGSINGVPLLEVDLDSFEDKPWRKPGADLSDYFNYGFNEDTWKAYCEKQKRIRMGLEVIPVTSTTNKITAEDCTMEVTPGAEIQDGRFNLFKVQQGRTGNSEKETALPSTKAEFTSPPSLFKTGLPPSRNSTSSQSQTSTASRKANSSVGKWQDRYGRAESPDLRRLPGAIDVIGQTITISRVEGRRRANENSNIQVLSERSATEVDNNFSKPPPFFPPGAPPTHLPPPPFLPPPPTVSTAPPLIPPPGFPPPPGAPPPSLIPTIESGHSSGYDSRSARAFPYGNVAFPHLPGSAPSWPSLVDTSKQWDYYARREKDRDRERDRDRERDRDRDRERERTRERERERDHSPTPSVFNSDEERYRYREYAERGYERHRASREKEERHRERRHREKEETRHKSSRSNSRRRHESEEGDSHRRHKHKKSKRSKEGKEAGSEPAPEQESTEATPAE

`CNC(=O)c1cc(Oc2ccc(NC(=O)Nc3ccc(Cl)c(C(F)(F)F)c3)cc2)ccn1` [sorafenib] was tested. Which “immunoblot of phospho-PDGFRα (Y1018) in BaF3 cells” value did it give?
The value was “The phosphorylation of T674I FIP1L1-PDGFRα was altered by sorafenib but not imatinib”.
